The text below walks through data of paper PMC5059724, “Purification and characterization of a novel phloretin-2′-O-glycosyltransferase favoring phloridzin biosynthesis” (Scientific Reports, 2016).

Experiment [1] addresses MdP2′GT (Malus domestica, UniProt A0A0X9XIE3). As to the kind of experiment: Effects of metal ions and other compounds on purified MdP2′GT activity. In kind it is biochemical, Malus x domestica. Details: key to IC50: ND: no effects detected at selected concentrations; Activator: additions increased MdP2′GT activity at selected concentrations. Conditions: for Effect of co-solvent on enzyme activity: 20% co-solvent.

For experiment [2], the target named is T1, MdP2′GT (Malus domestica, UniProt A0A0X9XIE3).
T1 construct: gene P2'GT
T1 sequence (A0A0X9XIE3 1-483): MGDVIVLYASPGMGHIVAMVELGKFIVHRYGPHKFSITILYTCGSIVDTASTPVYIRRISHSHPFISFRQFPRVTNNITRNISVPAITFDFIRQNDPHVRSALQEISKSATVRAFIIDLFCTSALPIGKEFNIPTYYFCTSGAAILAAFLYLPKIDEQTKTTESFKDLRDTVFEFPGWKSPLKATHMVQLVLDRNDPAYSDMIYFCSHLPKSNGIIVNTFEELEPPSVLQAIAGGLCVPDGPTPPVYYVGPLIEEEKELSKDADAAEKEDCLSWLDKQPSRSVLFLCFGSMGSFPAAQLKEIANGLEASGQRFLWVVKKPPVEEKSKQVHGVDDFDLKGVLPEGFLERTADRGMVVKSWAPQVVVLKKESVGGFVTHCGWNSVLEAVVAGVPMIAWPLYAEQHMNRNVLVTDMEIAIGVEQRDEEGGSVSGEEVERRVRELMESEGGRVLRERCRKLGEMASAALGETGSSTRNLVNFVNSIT
In words: Inhibition of phloridzin formation by purified MdP2′GT from 270 uM UDPG and 20 uM phloretin, 50 mM Tris/HCl pH 7.5, 5 mM DTT, 30 °C, 30 min, product quantified by HPLC-DAD. In kind it is biochemical.

Experiment [3] addresses Phloretin-2′-O-glycosyltransferase of Malus x domestica (MdP2′GT) (Malus x domestica). In words: SEC; Sephacryl S-300 column, 5 mg/ml purified MdP2′GT, buffer D (50 mM Tris-HCl pH 7.5, 200 mM NaCl, 5 mM DTT), calibrated with five marker proteins; native protein and protein deglycosylated with PNGase F or Endo H under native conditions; mass confirmed by MALDI-TOF.
A further experiment has as its system T2, UGT71A15.
T2 construct: literature enzyme, MW 52 kDa
As to the kind of experiment: Literature Km for 2′-OH glycosylation of phloretin with the UDPG/phloretin combination, quoted in the comparison table. Particulars: read-out: Km (μM), reported P2′GTs; cited from earlier work. In kind it is biochemical. The text has this: (§1) Table 5 Enzyme characters and Kinetic parameters of MdP2′GT and reported P2′GTs. | Km (μM), reported P2′GTs

The test system of another experiment is T3, UGT88F1.
T3 construct: literature enzyme, MW 59 kDa
The description is as above. Particulars: read-out: Km (μM), reported P2′GTs; cited from earlier work. In kind it is biochemical.
Description: as §1

Setting [4] is: 0.5 h, pH 7.5, addition at 5 mM, compared to a control in which none is added, read-out: Relative activity.
The mark [5] stands for this setting: addition at 5 mM, compared to a control in which none is added.
[6] abbreviates: concentration of inhibitor required to reduce the original MdP2′GT activity by 50%, read-out: IC50.
The mark [7] stands for this setting: addition at 0.5 mM, compared to a control in which none is added.
Where [8] appears, read: concentration of inhibitor required to reduce the original MdP2′GT activity by 50%.

Regarding `O=c1ccn([C@@H]2O[C@H](CO[P@@](=O)(O)O[P@@](=O)(O)OP(=O)(O)O)[C@@H](O)[C@H]2O)c(=O)[nH]1` (stereo in doubt) [UTP, uridine triphosphate], at MdP2′GT [1] (setting [4]), the activity at 5000 µM was 3.05 ± 0.26%.

In the case of `O=C(CCc1ccc(O)cc1)c1c(O)cc(O[C@@H]2O[C@H](CO)[C@@H](O)[C@H](O)[C@H]2O)cc1O` [Trilobatin], on MdP2′GT [1] (setting [5]), the Relative activity was 21.70 ± 1.15%.

Regarding `O=c1ccn([C@@H]2O[C@H](COP(=O)(O)OP(=O)(O)O)[C@@H](O)[C@H]2O)c(=O)[nH]1` [UDP, uridine diphosphate], the IC50 at MdP2′GT [2] (read-out: IC50/) is 100 ± 10 µM.

In the case of `[Cl-].[Na+]` [NaCl, Sodium chloride], the Relative activity on MdP2′GT [1] (addition at 500 mM, compared to a control in which none is added) is reported as 100 ± 1.00%; at MdP2′GT [1] (addition at 500 mM, compared to a control in which none is added, listed as Sodium chloride), “no obvious inhibitory effects”.

For the compound “Phloretin-2′-O-glycosyltransferase of Malus x domestica (MdP2′GT) (enzyme)”, the stoichiometry N in experiment [3] was 2.

As for `O=C(CCc1ccc(O)c(O)c1)c1c(O)cc(O)cc1O[C@@H]1O[C@H](CO)[C@@H](O)[C@H](O)[C@H]1O` [3-hydroxyphloridzin], the IC50 on MdP2′GT [2] (read-out: IC50/) stood at 2500 ± 200 µM.

Regarding `[Cl][Fe]([Cl])[Cl]` [FeCl3], at MdP2′GT [1] (setting [6]), the IC50 is 6500 ± 230 µM.

For `[Ca+2].[Cl-].[Cl-]` [CaCl2], the Relative activity on MdP2′GT [1] (setting [5]) is 54.21 ± 1.05%; on MdP2′GT [1] (addition at 5 mM, compared to a control in which none is added, listed as Ca^2+) it was “partially inhibited”. The IC50 at MdP2′GT [1] (setting [6]) amounted to 5500 ± 120 µM.

Take `[Cl][Al]([Cl])[Cl]` [AlCl3]: the Relative activity on MdP2′GT [1] (setting [5]) is on record as 67.81 ± 1.03%; at MdP2′GT [1] (addition at 5 mM, compared to a control in which none is added, listed as Al^3+), “partially inhibited”. Besides, the IC50 on MdP2′GT [1] (setting [6]) is 8000 ± 500 µM.

In the case of `O=S(=O)([O-])[O-].[Mn+2]` [MnSO4], the Relative activity at MdP2′GT [1] (setting [5]) is 47.41 ± 1.13%; on MdP2′GT [1] (addition at 5 mM, compared to a control in which none is added, listed as Mn^2+) it was “partially inhibited”. Moreover, the IC50 on MdP2′GT [1] (setting [6]) is 4500 ± 110 µM.

Regarding `O=c1ccn([C@@H]2O[C@H](COP(=O)(O)O)[C@@H](O)[C@H]2O)c(=O)[nH]1` [UMP, uridine monophosphate], the Relative activity at MdP2′GT [1] (setting [5]) came out at 38.25 ± 1.07%. Besides, the IC50 on MdP2′GT [2] (read-out: IC50/) worked out at 4000 ± 130 µM.

On to `O[C@@H](CS)[C@@H](O)CS` (racemic) [Dithiothreitol], for which the activity at 5000 µM on MdP2′GT [1] (setting [4]) was determined as 99.2 ± 1.43%. For the same compound, the Relative activity result on MdP2′GT [1] (setting [5]) is recorded as “No obvious effects”.

In the case of p-hydroxymercuribenzoate, the IC50 at MdP2′GT [1] (setting [6]) was determined as 240 ± 70 µM.

For `[Cl-].[K+]` [KCl], the Relative activity result on MdP2′GT [1] (setting [7]) is on record as “negligibly affected”; on MdP2′GT [1] (setting [5]), 99.58 ± 2.31%.

Turning to `C[S+](C)[O-]` [Dimethyl sulfoxide], the “Effect of co-solvent on enzyme activity” value at MdP2′GT [1] is listed as “no effects”. For the same compound, the Relative activity on MdP2′GT [1] (addition at 704 mM, compared to a control in which none is added) is given as 99.54 ± 1.40%.

Turning to `O=c1ccn([C@@H]2O[C@H](COP(=O)(O)OP(=O)(O)OP(=O)(O)O)[C@@H](O)[C@H]2O)c(=O)[nH]1` [UTP, uridine triphosphate], the IC50 at MdP2′GT [1] (setting [6]) was 2500 ± 100 µM.

For the compound `OCCS` [β-mercaptoethanol], the Relative activity at MdP2′GT [1] (setting [5]) is recorded as 99.02 ± 1.47%; at MdP2′GT [1] (addition at 5 mM, compared to a control in which none is added, listed as β-ME) it was “No obvious effects”.

For the compound `[Cl][Cu][Cl]` [CuCl2], the Relative activity was 0.00 ± 0.00% on MdP2′GT [1] (setting [5]) and “completely inhibited” at MdP2′GT [1] (addition at 5 mM, compared to a control in which none is added, listed as Cu^2+). At MdP2′GT [1] (setting [6]), the IC50 stood at 10 ± 10 µM.

With `[Cl-].[Cl-].[Mg+2]` [MgCl2], the Relative activity at MdP2′GT [1] (addition at 2 mM, compared to a control in which none is added) was found to be 130.35 ± 3.53%; on MdP2′GT [1] (addition at 2 mM, compared to a control in which none is added, listed as Mg^2+) it was 130%. Also, at MdP2′GT [1] (setting [8]), the IC50 result was “Activator”.

On to `CCN1C(=O)C=CC1=O` [N-Ethylmaleimide], for which the activity at 1000 µM at MdP2′GT [1] (0.5 h, pH 7.5, addition at 1 mM, compared to a control in which none is added, read-out: Relative activity) was found to be 20.5 ± 1.08%. Moreover, the Relative activity entry on MdP2′GT [1] (addition at 1 mM, compared to a control in which none is added) is “strong inhibition”. The IC50 at MdP2′GT [1] (setting [6]) is 280 ± 10 µM.

As for `O=C(CCc1ccc(O)c(O)c1)c1c(O)cc(O)cc1O[C@@H]1O[C@H](CO)[C@@H](O)[C@H](O)[C@H]1O` [3-hydroxyphloridzin, 3-hydroxyphloridzin], the Relative activity at MdP2′GT [1] (setting [5]) is on record as 15.65 ± 0.58%.

Take `O=C(CCc1ccc(O)cc1)c1c(O)cc(O[C@@H]2O[C@H](CO)[C@@H](O)[C@H](O)[C@H]2O)cc1O` [Trilobatin, trilobatin]: the IC50 on MdP2′GT [2] (read-out: IC50/) amounted to 3000 ± 210 µM.

As to `O=C(CCc1ccc(O)cc1)c1c(O)cc(O)cc1O` [Phloretin, phloretin], the results for the Km with UGT71A15 and in the experiment on UGT88F1 were 82 µM and 0.62 µM, respectively.

As for `[Ba+2].[Cl-].[Cl-]` [BaCl2], the values for the Relative activity result at MdP2′GT [1] (setting [7]) and at MdP2′GT [1] (setting [5]) were “negligibly affected” and 99.03 ± 2.54%, respectively.

Compound `O=C(O)c1cc[c]([Hg+])cc1` [p-hydroxymercuribenzoate, p-hydroxymercuribenzoate (PHMB)] yielded an IC50 on MdP2′GT [2] of 240 ± 70 µM.

As to `[Cl][Ni][Cl]` [NiCl2], the figures for the Relative activity result at MdP2′GT [1] (setting [7]) and at MdP2′GT [1] (setting [5]) were “negligibly affected” and 98.26 ± 2.08%, respectively.

Take `OCC(O)CO` [Glycerol]: on MdP2′GT [1] (0.5 h, pH 7.5, addition at 686 mM (text: 5% glycerol), compared to a control in which none is added, read-out: Relative activity), the activity at 686000 µM came to 98.1 ± 2.15%. Also, the Relative activity entry at MdP2′GT [1] (addition at 686 mM (text: 5% glycerol), compared to a control in which none is added) is “No obvious effects”.

Regarding `O=S(=O)([O-])[O-].[Fe+2]` [FeSO4], the Relative activity at MdP2′GT [1] (setting [5]) is listed as 119.43 ± 3.61%. On MdP2′GT [1] (setting [8]), the IC50 entry is “Activator”.

For `[Cl-].[Cl-].[Co+2]` [CoCl2], the IC50 on MdP2′GT [1] (read-out: IC50) came out at 50 ± 10 µM.

Take `NCCc1ccc(S(=O)(=O)F)cc1` [AEBSF, 4-(2-Aminoethyl) benzenesulfonyl fluoride]: the Relative activity entry on MdP2′GT [1] (setting [7]) is “No obvious effects”; on MdP2′GT [1] (addition at 0.5 mM, compared to a control in which none is added, 30 min, 500 µM), 99.51 ± 2.36%.

As for `O=c1ccn([C@@H]2O[C@H](CO)[C@@H](O)[C@H]2O)c(=O)[nH]1` [Uridine], the activity at 5000 µM on MdP2′GT [1] (setting [4]) is 98.2 ± 2.12%.

For `CO` [Methanol], at MdP2′GT [1], the “Effect of co-solvent on enzyme activity” value is “no effects”. Moreover, on MdP2′GT [1] (addition at 1236 mM, compared to a control in which none is added), the Relative activity was found to be 99.23 ± 1.41%.
